Like-named read-outs stand apart in the source and are kept apart here.
Tests used:
[1] = biological target: T1, BChE from equine serum (EqBChE) (Equus caballus, UniProt P81908); conditions: parent N-alkyl-2-[4-(trifluoromethyl)benzoyl]hydrazine-1-carboxamides; cited from earlier work
T1 construct: BChE from equine serum; purchased Merck (Prague, Czech Republic); host or cells: equine serum (natural source)

[2] = biological target: T1, BChE from equine serum (EqBChE); assay: biochemical; format: biochemical; conditions: equine serum BChE; mean ± SD from three independent experiments
Excerpt: (§1) Hydrazinecarboxamides 1–3 were examined in vitro for their potential to inhibit the function of AChE (obtained from electric eel) and BChE from equine serum using Ellman’s spectrophotometric method (Table 2). The activities are expressed as IC50 values, i.e., concentrations leading to 50% inhibition of enzymatic activity. Based on the IC50 values for AChE and BChE, we calculated selectivity indexes (SI) that quantified the selectivity for each cholinesterase. SI is the ratio of IC50 for BChE/IC50 for AChE.
(§2) The enzyme activity in the final reaction mixture (2000 µL) was 0.2 U/mL, the concentration of ATCh (or BTCh) was 40 µM, and the concentration of DTNB was 100 µM for all reactions. The investigated derivatives were dissolved in DMSO and then diluted with demineralized water (conductivity 3 μS, equipment supplier BKG Water Treatment, Hradec Králové, Czech Republic) to a concentration of 1000 µM. Five different inhibitor concentrations were used for all tested compounds in the final reaction mixture. The final concentration of DMSO was 0.2%. All experiments were performed in triplicate. The average values of the reaction rate (v0-uninhibited reaction, vi-inhibited reaction) were used to construct the dependence of v0/vi on the concentration of inhibitors. IC50 values were calculated from obtained regression curve equations.
(§3) Acetylcholinesterase originating from electric eels (Electrophorus electricus L.; EeAChE) and butyrylcholinesterase obtained from equine serum (EqBChE) were used.

[3] = biological target: T2, AChE (obtained from electric eel; EeAChE) (Electrophorus electricus, UniProt O42275); assay: biochemical; format: biochemical; conditions: for Selectivity BChE/AChE: SI = ratio of IC50 for BChE/IC50 for AChE, above 1 = stronger inhibition of AChE; for IC50: electric eel AChE, mean ± SD from three independent experiments
T2 construct: AChE (obtained from electric eel); purchased Merck (Prague, Czech Republic); host or cells: electric eel (natural source)
T2 sequence (O42275 24-633): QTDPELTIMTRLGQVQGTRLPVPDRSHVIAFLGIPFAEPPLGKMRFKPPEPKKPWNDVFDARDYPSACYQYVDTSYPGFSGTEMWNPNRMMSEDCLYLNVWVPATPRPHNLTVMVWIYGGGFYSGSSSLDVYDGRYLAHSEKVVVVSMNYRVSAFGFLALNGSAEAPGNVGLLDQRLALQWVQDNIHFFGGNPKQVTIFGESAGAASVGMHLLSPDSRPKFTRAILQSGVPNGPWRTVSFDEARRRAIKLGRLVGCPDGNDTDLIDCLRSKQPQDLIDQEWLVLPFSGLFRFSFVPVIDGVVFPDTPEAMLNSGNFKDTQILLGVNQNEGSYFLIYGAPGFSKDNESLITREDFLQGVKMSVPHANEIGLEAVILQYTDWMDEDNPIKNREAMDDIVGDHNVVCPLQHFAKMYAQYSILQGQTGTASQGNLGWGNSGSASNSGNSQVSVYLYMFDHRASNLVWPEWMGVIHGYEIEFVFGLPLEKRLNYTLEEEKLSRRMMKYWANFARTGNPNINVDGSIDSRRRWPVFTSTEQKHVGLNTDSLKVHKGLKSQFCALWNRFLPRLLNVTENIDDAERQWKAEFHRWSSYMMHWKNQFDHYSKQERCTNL
Excerpt: as §1, §2, §3

T1 sequence (P81908 whole entry): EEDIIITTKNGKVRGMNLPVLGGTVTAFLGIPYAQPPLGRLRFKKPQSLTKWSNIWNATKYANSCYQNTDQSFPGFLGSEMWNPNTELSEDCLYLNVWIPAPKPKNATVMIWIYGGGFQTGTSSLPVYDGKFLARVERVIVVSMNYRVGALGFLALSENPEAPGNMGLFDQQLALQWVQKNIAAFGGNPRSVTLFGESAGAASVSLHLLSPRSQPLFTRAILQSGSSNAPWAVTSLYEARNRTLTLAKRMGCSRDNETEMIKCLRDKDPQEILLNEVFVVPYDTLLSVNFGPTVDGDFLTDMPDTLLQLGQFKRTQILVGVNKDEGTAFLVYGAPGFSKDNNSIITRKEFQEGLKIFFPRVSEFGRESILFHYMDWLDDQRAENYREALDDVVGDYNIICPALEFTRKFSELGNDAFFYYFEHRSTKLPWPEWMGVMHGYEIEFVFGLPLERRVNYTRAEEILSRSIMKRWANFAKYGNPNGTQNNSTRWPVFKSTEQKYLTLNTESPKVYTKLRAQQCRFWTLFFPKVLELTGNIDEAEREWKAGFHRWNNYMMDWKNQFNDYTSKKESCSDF

SMILES	IC50 [1] [µM]	IC50 [2] [µM]	Selectivity BChE/AChE [3]	IC50 [3] [µM]
CCCCCCCCCCCCCNC(=O)NNC(=O)c1ccc(C(F)(F)F)cc1 [P2]	277 ± 10.3	–	–	–
CNC(=O)NNC(=O)c1ccc(C)cc1 [1o, N-Methyl-2-(4-methylbenzoyl)hydrazine-1-carboxamide]	–	284 ± 13.2	4.6	62.29 ± 0.56
CCCCCCCCCCCCCNC(=O)NNC(=O)c1ccccc1 [1ff, 2-Benzoyl-N-tridecylhydrazine-1-carboxamide]	–	235 ± 5.57	3.2	73.4 ± 2.45
CNC(=O)NNC(=O)c1ccc(C(C)(C)C)cc1 [1q]	–	281 ± 7.79	4.7	60 ± 2.47
CNC(=O)NNC(=O)c1ccc(O)cc1 [1aa, 2-(4-Hydroxybenzoyl)-N-methylhydrazine-1-carboxamide]	–	247 ± 18.4	3.7	67.6 ± 1.3
CNC(=O)NNC(=O)c1ccc(S(N)(=O)=O)cc1 [1cc, N-Methyl-2-(4-sulfamoylbenzoyl)hydrazine-1-carboxamide]	–	250 ± 5.22	2.9	86.14 ± 0.5
CCCCCCCCCCCCCNC(=O)NNC(=O)c1ccc(O)cc1 [1bb, 2-(4-Hydroxybenzoyl)-N-tridecylhydrazine-1-carboxamide]	–	149 ± 10.7	2.0	74.7 ± 3.31
CCCCCCCCCCCCCNC(=O)NNC(=O)c1ccc(I)cc1 [1j, 2-(4-Iodobenzoyl)-N-tridecylhydrazine-1-carboxamide]	–	192 ± 3.45	2.4	79.7 ± 2.08
CCCCCCCCCCCCCNC(=O)NNC(=O)c1ccccc1Br [2l, 2-(2-Bromobenzoyl)-N-tridecylhydrazine-1-carboxamide]	–	> 500	>9.3	53.99 ± 0.44
CCCCCCCCCCCCCNC(=O)NNC(=O)c1ccc(C#N)cc1 [1n, 2-(4-Cyanobenzoyl)-N-tridecylhydrazine-1-carboxamide]	–	418 ± 15.7	7.6	54.6 ± 1.27
CNC(=O)NNC(=O)c1ccc(C#N)cc1 [1m, 2-(4-Cyanobenzoyl)-N-methylhydrazine-1-carboxamide]	–	448 ± 39	8.1	55.64 ± 0.27
